Results on 39 molecules are retold here after patent US20070203098A1, “Pten Inhibitors” (priority 2004, published 2007).

Common to all, as to assay type: biochemical
In assay [1] the target is T1, PTEN (Homo sapiens, UniProt P60484). In words: PTEN Inhibition Assay: General Screening.
The target of assay [2] is T1, PTEN. The experiment in a line: PTEN Inhibition Assay: IC50 Determinations.
The next assay concerns the target T2, PTP1B (Homo sapiens, UniProt P18031).
T2 sequence (P18031 1-435): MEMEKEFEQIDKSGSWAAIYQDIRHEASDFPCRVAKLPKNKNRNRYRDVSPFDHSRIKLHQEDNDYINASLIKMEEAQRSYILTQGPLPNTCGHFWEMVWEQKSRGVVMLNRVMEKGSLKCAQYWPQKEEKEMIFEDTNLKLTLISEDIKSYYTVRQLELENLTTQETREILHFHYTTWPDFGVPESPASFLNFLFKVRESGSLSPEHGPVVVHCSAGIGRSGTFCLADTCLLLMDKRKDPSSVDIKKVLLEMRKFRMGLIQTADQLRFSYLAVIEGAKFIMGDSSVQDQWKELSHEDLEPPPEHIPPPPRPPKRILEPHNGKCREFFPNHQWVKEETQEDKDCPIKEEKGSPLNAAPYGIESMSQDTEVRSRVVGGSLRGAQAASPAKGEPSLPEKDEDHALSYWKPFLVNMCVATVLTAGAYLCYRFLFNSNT
The experiment in a line: PTP1B Inhibition Assay: IC50 Determinations.

Where [3] appears, read: read-out: % Inhibition at 250 uM.
Setting [4] is: 250 uM, Table 23 polyamides, read-out: % Inhibition @250 uM.
[5] abbreviates: 250 uM, Table 15 diamides, furazan core, read-out: % Inhibition @ 250 uM.
Where [6] appears, read: 250 uM, Table 24 known PTP inhibitors, read-out: % Inhibition at 250 uM.
The mark [7] stands for this setting: 250 uM, Table 22 imidazoles, read-out: % Inhibition at 250 uM.
Where [8] appears, read: read-out: % Inhibition @ 250 uM.
The mark [9] stands for this setting: 250 uM, Table 27 isatins, read-out: % Inhibition @250 uM.

Where a name gives a salt, the structure may show the parent alone. Read-outs that look alike come from different tables or passages of the source.

As a reminder, the inhibition is the drop in the measured response relative to a control, in per cent. The IC50 is the concentration that inhibits the measured activity by half.

T1 sequence (P60484 whole entry, species assumed): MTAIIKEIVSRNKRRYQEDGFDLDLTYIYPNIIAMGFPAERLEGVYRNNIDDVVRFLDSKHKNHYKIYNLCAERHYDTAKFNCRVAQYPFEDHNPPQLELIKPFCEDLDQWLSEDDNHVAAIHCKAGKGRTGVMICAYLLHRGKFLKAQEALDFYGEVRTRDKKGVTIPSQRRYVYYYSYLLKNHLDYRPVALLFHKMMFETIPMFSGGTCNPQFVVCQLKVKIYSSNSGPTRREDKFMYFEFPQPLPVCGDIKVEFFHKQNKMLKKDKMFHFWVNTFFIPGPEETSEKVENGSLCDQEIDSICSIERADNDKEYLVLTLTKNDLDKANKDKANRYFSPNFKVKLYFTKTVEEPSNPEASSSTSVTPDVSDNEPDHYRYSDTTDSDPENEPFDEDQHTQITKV

With `CC(C)=C[C@@H]1[C@H](C(=O)OCc2coc(Cc3ccccc3)c2)C1(C)C` (mixture of isomers) [SF1671-000, 5-Benzyl-3-furylmethyl (1R,S)-cis,trans-chrysanthemate, reference compound], on PTEN [1] (setting [3]), the inhibition at 250 µM is 9.6%.

Regarding `CC1(C)C(C=C(Cl)Cl)[C@H]1C(=O)O[C@@H](C#N)c1cccc(Oc2ccccc2)c1` (stereo in doubt) [SF1687-000, Cypermethrin, reference compound], the inhibition at 250 µM on PTEN [1] (setting [3]) is -5.9%.

Consider `NCCCC(O)(P(=O)([O-])O)P(=O)(O)O.[Na+]` [CC1669-100, Alendronate, Sodium, Trihydrate, reference compound], for which, on PTEN [1], the “% Inhibition @ 250 uM in PTEN Assay” value is recorded as “minimal activity”. Moreover, the inhibition at 250 µM on PTEN [1] (read-out: % Inhibition @ 250 uM in PTEN Assay) was -0.9 to 20%.

`O=C(CCC(=O)NNC(=O)COc1ccc(Cl)cc1)NNC(=O)COc1ccc(Cl)cc1` [SF1516-000]: the inhibition at 250 µM on PTEN [1] (setting [4]) came to 35.3%.

As to `CCOC(=O)CNC(=O)C(c1ccc(O)cc1)N(C(=O)c1snc(C(N)=O)c1N)c1ccc2c(c1)OCO2` (centres unmarked) [SF1552-000], the inhibition at 250 µM at PTEN [1] (setting [4]) is 52.4%.

In the case of `CCOC(=O)CNC(=O)C(c1ccc2ncccc2c1)N(CC1CCCO1)C(=O)c1snc(C(N)=O)c1N` (centres unmarked) [SF1566-000], at PTEN [1] (setting [4]), the inhibition at 250 µM amounted to 70.6%.

Consider `Nc1nonc1NC(=O)N/N=C/CCC/C=N/NC(=O)Nc1nonc1N` [SF1567-000], for which the inhibition at 250 µM on PTEN [1] (setting [4]) stood at 60.2%.

With `Cc1ccc(C)c(OCC(=O)Nc2nonc2NC(=O)COc2cc(C)ccc2C)c1` [SF1609-000], on PTEN [1] (setting [5]), the inhibition at 250 µM lay in the range of 58 to 80%. Also, the IC50 was 80 to 113 µM at PTEN [2] (Table 29, read-out: PTEN IC50) and 5.8 µM on PTP1B (Table 29, read-out: PTP1B IC50).

Turning to `CC(C)c1ccccc1OCC(=O)Nc1nonc1NC(=O)COc1ccccc1C(C)C` [SF1617-000], the inhibition at 250 µM at PTEN [1] (setting [5]) was 3 to 81%. The IC50 on PTEN [2] (Table 29, read-out: PTEN IC50) was 66 to 84 µM; at PTP1B (Table 29, read-out: PTP1B IC50), 13.6 µM.

On to `O=C(COc1ccccc1)NC1CCCCC1NC(=O)COc1ccccc1` (centres unmarked) [SF1647-000], for which, on PTEN [1] (250 uM, Table 16, read-out: % Inhibition @ 250 uM), the inhibition at 250 µM was determined as 2.2%.

As to `CC1(C)[C@H](C=C(Br)Br)[C@@H]1C(=O)OC(C#N)c1cccc(Oc2ccccc2)c1` (some centres unmarked) [SF1667-000, Deltamethrin, reference compound], the inhibition at 250 µM on PTEN [1] (setting [3]) worked out at 0.3%.

On to `Cc1ccc(C(=O)Nc2ccc(S(=O)(=O)O)c3cc(S(=O)(=O)O)cc(S(=O)(=O)O)c23)cc1NC(=O)c1cccc(NC(=O)Nc2cccc(C(=O)Nc3cc(C(=O)Nc4ccc(S(=O)(=O)O)c5cc(S(=O)(=O)O)cc(S(=O)(=O)O)c45)ccc3C)c2)c1` [SF1672-100, Suramin, Sodium Salt, reference compound], for which the inhibition at 250 µM on PTEN [1] (setting [6]) is -9.9%.

For the molecule `CC12CCC(C)(O1)C(C(=O)O)C2C(=O)O` (centres unmarked) [SF1676-000, 1,4-Dimethylendothall, reference compound], on PTEN [1] (setting [3]), the inhibition at 250 µM turned out to be 3.3%.

For the molecule `CC1(C(=O)O)C2CCC(O2)C1(C)C(=O)O` (centres unmarked) [SF1679-000, Cantharidic Acid, reference compound], at PTEN [1] (setting [3]), the inhibition at 250 µM came out at 2.7%.

Regarding `CCN(N=O)c1ccc(O)c(O)c1` [SF1681-000, 3,4-Dephostatin, Ethyl-, reference compound], at PTEN [1] (setting [3]), the inhibition at 250 µM worked out at 82.4%. The IC50 at PTEN [2] and against PTP1B was 50 µM throughout.

With `CC(C)C(C(=O)OC(C#N)c1cccc(Oc2ccccc2)c1)c1ccc(Cl)cc1` (centres unmarked) [SF1683-000, Fenvalerate, reference compound], the inhibition at 250 µM at PTEN [1] (setting [3]) is -25.5%.

On to `O=P(O)(O)Oc1cccc2ccccc12` [SF1684-100, α-Naphthyl Acid Phosphate, Monosodium Salt, reference compound], for which, at PTEN [1] (setting [3]), the inhibition at 250 µM came to 11.2%.

`O=P(O)(O)OC(CO)CO` [SF1685-100, β-Glycerophosphate, Disodium Salt, Pentahydrate, reference compound]: the inhibition at 250 µM on PTEN [1] (setting [6]) was 10.9%.

On to `O=C(O)[C@@H]1[C@H](C(=O)O)[C@H]2CC[C@@H]1O2` [SF1686-000, Endothall, reference compound], for which the inhibition at 250 µM at PTEN [1] (setting [3]) was -1.2%.

Consider `Cc1cccc(-n2cnc(C(=O)NNC(=O)c3ccc(C(C)(C)C)cc3)c2)n1` [SF1708-000], for which the inhibition at 250 µM at PTEN [1] (setting [7]) was 57 to 95%. Further, the IC50 on PTEN [2] (Table 29, read-out: PTEN IC50) worked out at 50 µM; at PTP1B (Table 29, read-out: PTP1B IC50) it was 60 µM.

For the molecule `O=C1C(=O)c2ccccc2-c2ccccc21` [SF1721-000], the inhibition at 250 µM on PTEN [1] (setting [8]) is 99.7%. For the same molecule, the IC50 against PTEN [2] turned out to be 3.4 µM; against PTP1B it was 17 µM.

In the case of `O=C1C(=O)c2cc([N+](=O)[O-])ccc2-c2ccccc21` [SF1722-000], the inhibition at 250 µM at PTEN [1] (setting [8]) was 99.3%. Moreover, the IC50 against PTEN [2] came to 4 µM.

In the case of `CC(C)(C)c1ccc(C(=O)NNC(=O)c2ccc(C(C)(C)C)cc2)cc1` [SF1733-000], the inhibition at 250 µM on PTEN [1] (setting [7]) came out at 15.9%.

`Oc1cc2ccccc2c2ccccc12` [SF1734-000] displayed an IC50 on PTEN [2] of 33 µM.

Consider `O=C1CC(S(=O)(=O)O)c2ccccc2C1=O` (centres unmarked) [SF1735-000], for which the IC50 on PTEN [2] (Table 28, read-out: PTEN IC50) is 20 µM; on PTP1B (Table 29, read-out: PTP1B IC50), above 250 µM.

For `O=C1C=Cc2ccccc2C1=O` [SF1736-000], the IC50 against PTEN [2] stood at 21 µM.

On PTEN [2], `O=C1C=CC(=O)c2ccccc21` [SF1737-000] had an IC50 of 43 µM.

On to `COc1ccc(OCC(=O)Nc2ccc3c(c2)C(=O)C(=O)c2ccccc2-3)cc1` [SF1751-000], for which the inhibition at 250 µM at PTEN [1] (setting [8]) was 99.2%. Besides, the IC50 at PTEN [2] (Table 29, read-out: PTEN IC50) was 0.3 µM; at PTP1B (Table 29, read-out: PTP1B IC50) it was 3 µM.

Turning to `Cc1ccc(OCC(=O)Nc2ccc3c(c2)C(=O)C(=O)c2ccccc2-3)cc1` [SF1771-000], the inhibition at 250 µM on PTEN [1] (setting [8]) turned out to be 99.2%. Further, the IC50 against PTEN [2] was determined as 0.395 µM; against PTP1B it was 0.442 µM.

As for `CC(C)c1ccccc1OCC(=O)Nc1ccc2c(c1)C(=O)C(=O)c1ccccc1-2` [SF1772-000], on PTEN [1] (setting [8]), the inhibition at 250 µM was found to be 99.4%. Further, the IC50 at PTEN [2] (Table 29, read-out: PTEN IC50) is 0.435 µM; at PTP1B (Table 29, read-out: PTP1B IC50), 0.681 µM.

Consider `O=C1C(=O)c2cc(NS(=O)(=O)c3ccc([N+](=O)[O-])cc3)ccc2-c2ccccc21` [SF1774-000], for which, on PTEN [1] (setting [8]), the inhibition at 250 µM was found to be 98.6%. In addition, the IC50 came to 0.214 µM on PTEN [2] (Table 29, read-out: PTEN IC50) and 0.331 µM at PTP1B (Table 29, read-out: PTP1B IC50).

As for `Cc1ccc(C(=O)Nc2ccc3c(c2)C(=O)C(=O)N3)cc1` [SF1778-000], on PTEN [1] (setting [9]), the inhibition at 250 µM came out at 98.5%. For the same molecule, the IC50 at PTEN [2] (Table 29, read-out: PTEN IC50) turned out to be 22.1 µM; on PTP1B (Table 29, read-out: PTP1B IC50), 11 µM.

As to `CC(C)(C)c1ccc(S(=O)(=O)Nc2ccc3c(c2)C(=O)C(=O)c2ccccc2-3)cc1` [SF1780-000], the inhibition at 250 µM at PTEN [1] (setting [8]) stood at 98%. The half-inhibitory concentration (IC50) on PTEN [2] (Table 29, read-out: PTEN IC50) was found to be 0.269 µM; on PTP1B (Table 29, read-out: PTP1B IC50), 0.12 µM.

On to `O=C(CNc1ccc2c(c1)C(=O)C(=O)c1ccccc1-2)OCc1ccccc1` [SF1807-000], for which the inhibition at 250 µM on PTEN [1] (setting [8]) was 93.9%. Further, the IC50 on PTP1B is below 1 µM.

Regarding `CCOC(=O)Nc1ccc2c(c1)C(=O)C(=O)c1ccccc1-2` [SF1808-000], on PTEN [1] (setting [8]), the inhibition at 250 µM turned out to be 96.2%. This molecule also registered an IC50 against PTP1B below 1 µM.

Consider `CCOC(=O)c1cccc(OCC(=O)Nc2ccc3c(c2)C(=O)C(=O)c2ccccc2-3)c1` [SF1811-000], for which the inhibition at 250 µM on PTEN [1] (setting [8]) stood at 98.6%.

As for `O=C(CCc1ccccc1[N+](=O)[O-])Nc1ccc2c(c1)C(=O)C(=O)N2` [SF1812-000], the inhibition at 250 µM on PTEN [1] (setting [9]) stood at 40.5%. Besides, at PTP1B (Table 29, read-out: PTP1B IC50), the IC50 is above 10 µM.

Regarding `O=C1Nc2c(Cl)ccc(Cl)c2C1=O` [SF1822-000], at PTEN [1] (setting [9]), the inhibition at 250 µM turned out to be 97.3%. On PTEN [2] (Table 29, read-out: PTEN IC50), the IC50 came to 24.5 µM.

Consider “Monoperoxo(picolinato)oxovanadate(V) [SF1677-000, reference compound]”, for which, at PTEN [1], the “% Inh. @ 250 uM in PTEN Assay” value is 96.9%.
